Values joined by “and” are separate entries in the source; they are usually repeats but may differ in a detail not shown here. Equal values may be shown once. Toxic doses and inconclusive results are not listed.
Test system: BDF1 mice, P388 leukemia ip, median survival T/C
Assay: NCI In Vivo Anticancer Drug Screen. Data for tumor model P388 Leukemia (intraperitoneal) in B6D2F1 (BDF1) mice
Conditions: endpoint: median survival time, higher = longer survival
How it was run: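 Read-out is survival of treated animals expressed relative to the vehicle group, as a T/C ratio.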

[1] = dose: 50.0 mg/kg/injection, schedule: Q01DX009 (ip), vehicle: saline with Tween-80
[2] = dose: 100.0 mg/kg/injection, schedule: Q01DX009 (ip), vehicle: saline with Tween-80
[3] = dose: 200.0 mg/kg/injection, schedule: Q01DX009 (ip), vehicle: saline with Tween-80

With `CN(C)c1ccc(/C=C/c2ccc3ccccc3[n+]2C)cc1` the T/C (dose: 12.5 mg/kg/injection, schedule: Q01DX009 (ip), vehicle: saline) was 88 % of control.
With `NC(=O)c1ccc(NC(=O)/C=C/C(=O)Nc2ccc(C(N)=O)cn2)nc1` the T/C (dose: 0.08 mg/kg/injection, schedule: Q01DX009 (ip), vehicle: saline) was 115 % of control, the T/C (dose: 0.17 mg/kg/injection, schedule: Q01DX009 (ip), vehicle: saline) was 120 % of control and the T/C (dose: 0.35 mg/kg/injection, schedule: Q01DX009 (ip), vehicle: saline) was 105 % of control. The T/C (dose: 0.7 mg/kg/injection, schedule: Q01DX009 (ip), vehicle: saline) was 103 % of control, the T/C (dose: 1.4 mg/kg/injection, schedule: Q01DX009 (ip), vehicle: saline) was 107 % of control and the T/C (dose: 1.65 mg/kg/injection, schedule: Q01DX009 (ip), vehicle: saline with Tween-80) was 113 % of control. For the same compound, the T/C (dose: 2.5 mg/kg/injection, schedule: Q01DX009 (ip), vehicle: saline with Tween-80) was 117 % of control, the T/C (dose: 3.75 mg/kg/injection, schedule: Q01DX009 (ip), vehicle: saline with Tween-80) was 94 % of control and the T/C (dose: 4.5 mg/kg/injection, schedule: Q04DX003 (ip), vehicle: saline) was 86 % of control. For the same compound, the T/C (dose: 5.62 mg/kg/injection, schedule: Q01DX009 (ip), vehicle: saline) was 104 % of control, the T/C (dose: 9.0 mg/kg/injection, schedule: Q04DX003 (ip), vehicle: saline) was 108 % of control and the T/C (dose: 18.0 mg/kg/injection, schedule: Q04DX003 (ip), vehicle: saline) was 100 % of control. The T/C (dose: 26.0 mg/kg/injection, schedule: Q04DX003 (ip), vehicle: saline) was 112 % of control and the T/C (dose: 40.0 mg/kg/injection, schedule: Q04DX003 (ip), vehicle: saline) was 108 % of control.
For `OP(=S)(c1ccccc1)c1ccccc1`, the T/C (dose: 50.0 mg/kg/injection, schedule: Q01DX009 (ip), vehicle: other) was 110 % of control, the T/C (dose: 100.0 mg/kg/injection, schedule: Q01DX009 (ip), vehicle: other) was 106 % of control and the T/C (dose: 200.0 mg/kg/injection, schedule: Q01DX009 (ip), vehicle: other) was 108 % of control.
In the case of `COc1c(Br)cc(N=Cc2ccc(N(CCCl)CCCl)cc2C)cc1Br`, the T/C (dose: 88.0 mg/kg/injection, schedule: Q01DX010 (ip), vehicle: carboxymethylcellulose (CMC)) is reported as 115 % of control, the T/C (dose: 133.0 mg/kg/injection, schedule: Q01DX010 (ip), vehicle: carboxymethylcellulose (CMC)) is reported as 155 % of control and the T/C (dose: 200.0 mg/kg/injection, schedule: Q01DX010 (ip), vehicle: carboxymethylcellulose (CMC)) is reported as 165 % of control. The T/C (dose: 300.0 mg/kg/injection, schedule: Q01DX010 (ip), vehicle: carboxymethylcellulose (CMC)) was 215 % of control.
In the case of `CCC(=O)O[C@H]1CC(=O)N(C)c2cc(cc(OC)c2Cl)C/C(C)=C/C=C[C@@H](OC)[C@@]2(O)C[C@H](OC(=O)N2)[C@@H](C)[C@H]2O[C@@]12C`, the T/C (dose: 0.8 micrograms/kg/injection, schedule: Q01DX009 (ip), vehicle: saline + alcohol) is reported as 170 % of control, the T/C (dose: 0.9 micrograms/kg/injection, schedule: Q01DX009 (ip), vehicle: saline + alcohol) is reported as 110 % of control and the T/C (dose: 1.5 micrograms/kg/injection, schedule: Q01DX009 (ip), vehicle: saline + alcohol) is reported as 173 % of control. For the same compound, the T/C (dose: 3.1 micrograms/kg/injection, schedule: Q01DX009 (ip), vehicle: saline + alcohol) was 168 % of control, the T/C (dose: 6.2 micrograms/kg/injection, schedule: Q01DX009 (ip), vehicle: saline + alcohol) was 170 % of control and the T/C (dose: 12.5 micrograms/kg/injection, schedule: Q01DX009 (ip), vehicle: saline + alcohol) was 163 % of control and 183 % of control. For the same compound, the T/C (dose: 25.0 micrograms/kg/injection, schedule: Q01DX009 (ip), vehicle: saline + alcohol) was 258 % of control and 153 % of control and the T/C (dose: 50.0 micrograms/kg/injection, schedule: Q01DX009 (ip), vehicle: saline + alcohol) was 198 % of control and 223 % of control.
In the case of `NC(=O)c1cc([N+](=O)[O-])c(Cl)c([N+](=O)[O-])c1`, the T/C (dose: 2.5 mg/kg/injection, schedule: Q01DX009 (ip), vehicle: Klucel (hydroxypropylcellulose) (HPC)) is reported as 109 % of control, the T/C (dose: 5.0 mg/kg/injection, schedule: Q01DX009 (ip), vehicle: Klucel (hydroxypropylcellulose) (HPC)) is reported as 109 % of control and the T/C (dose: 10.0 mg/kg/injection, schedule: Q01DX009 (ip), vehicle: Klucel (hydroxypropylcellulose) (HPC)) is reported as 104 % of control and 105 % of control. For the same compound, the T/C (dose: 10.0 mg/kg/injection, schedule: Q04DX003 (ip), vehicle: Klucel (hydroxypropylcellulose) (HPC)) was 100 % of control and the T/C (dose: 40.0 mg/kg/injection, schedule: Q04DX003 (ip), vehicle: Klucel (hydroxypropylcellulose) (HPC)) was 90 % of control.
With `COC(=O)CCC(=O)c1ccc(OC)c(OC)c1` the T/C [1] was 115 % of control, the T/C [2] was 99 % of control and the T/C [3] was 99 % of control.
In the case of `C=CCNC(=O)Cn1nnc(-c2ccccc2)n1`, the T/C [1] is reported as 86 % of control, the T/C [2] is reported as 101 % of control and the T/C [3] is reported as 107 % of control.
